Data published in the supplement of paper PMC10307832.

What was measured:
Assay in all cases: relative viability (nuclei count vs DMSO), 5 days (fraction); higher = more cells survive
CAP-232 + Linsitinib = compound: C[C@H]([C@@H](C(=O)N)NC(=O)[C@@H]1CSSC[C@@H](C(=O)N[C@H](C(=O)N[C@@H](C(=O)N[C@H](C(=O)N1)CCCCN)CC2=CNC3=CC=CC=C32)CC4=CC=C(C=C4)O)NC(=O)[C@@H](CC5=CC=CC=C5)N)O [CAP-232] + C[C@]1(O)C[C@@H](c2nc(-c3ccc4ccc(-c5ccccc5)nc4c3)c3c(N)nccn32)C1 [Linsitinib] (partner 1 µM)
Procedure, shortened: (§1)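 The day after seeding in 1536-well plates, lung cancer cell lines were treated by pin tool with a single drug, or with a fixed anchor-drug dose together with five library-drug doses (not always all listed) in √10 steps. After 5 days, a combined fix-and-stain solution (final 0.05% Triton X-100, 1% formaldehyde, 1 ug/ml Hoechst) was added. Nuclei counted on 4× images gave relative viability as treated counts over vehicle counts, reported as the median of duplicate plates.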

CAP-232 + Phenformin = compound: C[C@H]([C@@H](C(=O)N)NC(=O)[C@@H]1CSSC[C@@H](C(=O)N[C@H](C(=O)N[C@@H](C(=O)N[C@H](C(=O)N1)CCCCN)CC2=CNC3=CC=CC=C32)CC4=CC=C(C=C4)O)NC(=O)[C@@H](CC5=CC=CC=C5)N)O [CAP-232] + N=C(N)NC(=N)NCCc1ccccc1 [Phenformin] (partner 250 µM)
Procedure, shortened: as §1

CAP-232 + AZD7762 = compound: C[C@H]([C@@H](C(=O)N)NC(=O)[C@@H]1CSSC[C@@H](C(=O)N[C@H](C(=O)N[C@@H](C(=O)N[C@H](C(=O)N1)CCCCN)CC2=CNC3=CC=CC=C32)CC4=CC=C(C=C4)O)NC(=O)[C@@H](CC5=CC=CC=C5)N)O [CAP-232] + NC(=O)Nc1cc(-c2cccc(F)c2)sc1C(=O)N[C@H]1CCCNC1 [AZD7762] (partner 0.2 µM)
Procedure, shortened: as §1

CAP-232 + Decitabine = compound: C[C@H]([C@@H](C(=O)N)NC(=O)[C@@H]1CSSC[C@@H](C(=O)N[C@H](C(=O)N[C@@H](C(=O)N[C@H](C(=O)N1)CCCCN)CC2=CNC3=CC=CC=C32)CC4=CC=C(C=C4)O)NC(=O)[C@@H](CC5=CC=CC=C5)N)O [CAP-232] + Nc1ncn([C@H]2C[C@H](O)[C@@H](CO)O2)c(=O)n1 [Decitabine] (partner 2 µM)
Procedure, shortened: as §1

CAP-232 + Bortezomib = compound: C[C@H]([C@@H](C(=O)N)NC(=O)[C@@H]1CSSC[C@@H](C(=O)N[C@H](C(=O)N[C@@H](C(=O)N[C@H](C(=O)N1)CCCCN)CC2=CNC3=CC=CC=C32)CC4=CC=C(C=C4)O)NC(=O)[C@@H](CC5=CC=CC=C5)N)O [CAP-232] + CC(C)C[C@H](NC(=O)[C@H](Cc1ccccc1)NC(=O)c1cnccn1)B(O)O [Bortezomib] (partner 0.002 µM)
Procedure, shortened: as §1

| Cell Line | relative viability (CAP-232 + Linsitinib; first compound 0.4 µM) | relative viability (CAP-232 + Linsitinib; first compound 1.265 µM) | relative viability (CAP-232 + Linsitinib; first compound 4 µM) | relative viability (CAP-232 + Linsitinib; first compound 12.65 µM) | relative viability (CAP-232 + Phenformin; first compound 0.4 µM) | relative viability (CAP-232 + Phenformin; first compound 1.265 µM) | relative viability (CAP-232 + Phenformin; first compound 4 µM) | relative viability (CAP-232 + Phenformin; first compound 12.65 µM) | relative viability (CAP-232 + AZD7762; first compound 0.4 µM) | relative viability (CAP-232 + AZD7762; first compound 1.265 µM) | relative viability (CAP-232 + AZD7762; first compound 4 µM) | relative viability (CAP-232 + AZD7762; first compound 12.65 µM) | relative viability (CAP-232 + Decitabine; first compound 0.4 µM) | relative viability (CAP-232 + Decitabine; first compound 1.265 µM) | relative viability (CAP-232 + Decitabine; first compound 4 µM) | relative viability (CAP-232 + Decitabine; first compound 12.65 µM) | relative viability (CAP-232 + Bortezomib; first compound 0.4 µM) | relative viability (CAP-232 + Bortezomib; first compound 1.265 µM) | relative viability (CAP-232 + Bortezomib; first compound 4 µM) | relative viability (CAP-232 + Bortezomib; first compound 12.65 µM) |
| --- | --- | --- | --- | --- | --- | --- | --- | --- | --- | --- | --- | --- | --- | --- | --- | --- | --- | --- | --- | --- |
| NCI-H358 | 0.548 | 0.686 | 0.796 | 0.584 | 0.319 | 0.295 | 0.278 | 0.315 | 0.466 | 0.406 | 0.376 | 0.318 | 0.184 | 0.198 | 0.229 | 0.18 |  |  |  |  |
| NCI-H520 | 1.06 | 0.969 | 1.04 | 0.563 | 0.529 | 0.52 | 0.619 | 0.461 |  |  |  |  | 0.496 | 0.509 | 0.518 | 0.416 | 0.71 | 0.508 | 0.611 | 0.438 |
| NCI-H522 |  |  |  |  | 0.7 | 0.72 | 0.592 | 0.69 | 0.876 | 1.08 | 0.926 | 1.04 | 0.677 | 0.623 | 0.572 | 0.658 |  |  |  |  |
| NCI-H661 | 0.488 | 0.659 | 0.575 | 0.462 | 0.262 | 0.268 | 0.278 | 0.227 |  |  |  |  | 0.546 | 0.543 | 0.583 | 0.446 | 0.658 | 0.809 | 0.733 | 0.851 |
| NCI-H1395 | 1.3 | 0.986 | 1.03 | 0.831 | 0.46 | 0.4 | 0.448 | 0.453 | 0.511 |  | 0.423 | 0.224 | 0.777 |  | 0.745 | 0.537 |  |  |  |  |
| NCI-H1563 | 1.36 | 1.12 | 1.21 | 0.829 | 0.698 | 0.643 | 0.598 | 0.37 |  |  |  |  |  |  |  |  | 0.836 | 0.735 | 0.957 | 0.687 |
| NCI-H1650 |  |  |  |  | 0.479 | 0.335 | 0.424 | 0.153 |  |  |  |  | 0.404 | 0.423 | 0.554 | 0.192 | 0.196 | 0.209 | 0.214 | 0.117 |
| NCI-H1703 | 0.489 | 0.642 | 0.933 | 0.873 |  |  |  |  | 0.124 |  | 0.143 | 0.146 |  |  |  |  | 0.251 | 0.333 | 0.226 | 0.164 |
| NCI-H1793 | 1.09 | 1.06 | 0.652 | 0.801 | 0.4 | 0.367 | 0.329 | 0.372 | 0.437 | 0.618 | 0.518 | 0.524 | 0.473 | 0.406 | 0.389 | 0.494 |  |  |  |  |
| NCI-H1944 | 1.3 | 1.13 | 1.14 | 1.07 | 0.211 | 0.207 | 0.221 | 0.181 | 0.516 | 0.476 | 0.452 | 0.367 | 0.426 | 0.424 | 0.363 | 0.424 |  |  |  |  |
| NCI-H2009 | 1.2 | 1.18 | 1.22 | 1.09 | 0.501 | 0.493 | 0.547 | 0.42 |  |  |  |  | 0.397 | 0.391 | 0.341 | 0.33 | 1.09 | 0.974 | 0.97 | 0.843 |
| NCI-H2023 | 0.659 | 0.615 | 0.697 | 0.249 | 0.448 | 0.388 | 0.417 | 0.188 |  |  |  |  | 0.242 | 0.2 | 0.239 | 0.153 | 1.02 | 1.03 | 1.07 | 0.237 |
| NCI-H2170 |  |  |  |  | 0.409 | 0.422 | 0.438 | 0.42 | 0.915 | 0.907 | 0.906 | 0.846 | 0.496 | 0.492 | 0.492 | 0.486 |  |  |  |  |
| NCI-H2228 | 0.596 | 0.581 | 0.521 | 0.646 | 0.38 | 0.253 | 0.409 | 0.221 |  |  |  |  |  |  |  |  | 0.9 | 0.977 | 1.21 | 0.74 |
| NCI-H2342 |  |  |  |  | 0.572 | 0.562 | 0.629 | 0.551 | 0.478 | 0.539 | 0.586 | 0.574 | 0.714 | 0.81 | 0.736 | 0.666 |  |  |  |  |
| SK-LU-1 | 1.06 | 1.2 | 1.15 | 1.06 | 0.503 | 0.553 | 0.67 | 0.482 |  |  |  |  | 0.628 | 0.622 | 0.768 | 0.469 | 1.53 | 1.04 | 1.2 | 1.3 |
| SK-MES-1 | 1.09 | 1.14 | 1 | 1.01 | 0.684 | 0.663 | 0.693 | 0.521 |  |  |  |  | 0.452 | 0.344 | 0.384 | 0.274 |  |  |  |  |
| SW 900 |  |  |  |  | 0.644 | 0.527 | 0.722 | 0.457 | 0.666 | 0.604 | 0.515 | 0.547 | 0.442 | 0.369 | 0.355 | 0.454 |  |  |  |  |
| SW 1573 | 0.751 | 0.781 | 0.731 | 0.683 | 0.337 | 0.413 | 0.421 | 0.163 |  |  |  |  | 0.48 | 0.534 | 0.45 | 0.169 | 0.951 | 1.03 | 0.927 | 0.974 |
| UMC-11 | 1.13 | 1 | 1.14 | 1.1 | 0.309 | 0.28 | 0.332 | 0.295 |  |  |  |  | 0.55 | 0.55 | 0.581 | 0.671 | 1.11 | 0.719 | 1.11 | 1.1 |
